According to BindingDB's records for doi:10.1073/pnas.86.24.9762 (Oregon Health Sciences University, 1989):

Target: D(2) dopamine receptor (Homo sapiens, UniProt P14416)
Sequence (P14416 whole entry): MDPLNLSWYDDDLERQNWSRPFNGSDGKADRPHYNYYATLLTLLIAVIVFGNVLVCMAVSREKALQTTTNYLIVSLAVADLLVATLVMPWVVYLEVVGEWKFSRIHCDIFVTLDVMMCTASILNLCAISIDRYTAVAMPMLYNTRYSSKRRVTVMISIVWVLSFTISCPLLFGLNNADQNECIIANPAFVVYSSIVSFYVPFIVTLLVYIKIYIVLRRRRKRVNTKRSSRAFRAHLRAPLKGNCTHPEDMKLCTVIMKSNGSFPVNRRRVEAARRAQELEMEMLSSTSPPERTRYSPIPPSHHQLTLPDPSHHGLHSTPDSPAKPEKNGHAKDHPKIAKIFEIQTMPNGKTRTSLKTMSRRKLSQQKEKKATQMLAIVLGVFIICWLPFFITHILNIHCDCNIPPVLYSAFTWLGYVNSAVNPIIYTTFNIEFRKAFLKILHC

CN1CCN2c3ccccc3Cc3ccccc3[C@H]2C1 [MIANSERIN (+)]
Ki: 2.68 µM
